# How the values were obtained:
# E. coli (ATCC 35150) = assay: E. coli viability on spinach leaves after plasma-activated mist exposure; format: cell-based; conditions: no plasma mist
# Description: E. coli (ATCC 35150) cultures were grown to stationary phase in tryptic soy broth (TSB; Difco, Becton Dickinson, Franklin Lakes, N.J.). Aliquots of the prepared cultures were mixed into a volume of sterile Milli-Q water (Millipore, Billerica, Mass.) that yields an overall bacterial inoculum percentage of 2%. Thirty microliter aliquots of the bacterial culture were used to spot inoculate regions on the leaf surface of each leaf sample. Cultures were air dried on the leaf samples for 1 hour.
# An Ultrasonic 360 humidifier (Safety 1st; Columbus, Ind.) was connected to plastic tubing and fed into a custom small-scale plasma generator. The plasma configuration consisted of two parallel brass plate electrodes that have an area of 40 mm×45 mm and thickness of 5 mm. Polyetherimide was used as the housing material for the electrodes. The upper electrode was connected to a high voltage power supply (1-20 kV) with operating parameters that can be adjusted while the lower electrode is grounded. The adjustable outlet of the setup released plasma-activated water mist onto inoculated leaves fixed 2 mm beneath the opening. Plasma-activated water mist was applied to the inoculated leaves at intervals from 15 seconds to 2 minutes. […]
# Bacterial viability was […]. […] Data was analyzed using GraphPad Prism and InStat graphical and statistical software (GraphPad Software, Inc., La Jolla, Calif.). […]
# S. aureus = S. aureus viability on spinach leaves after plasma-activated mist exposure; format: cell-based; conditions: no plasma mist
smiles,measurement,setting,value
O=CC=Cc1ccccc1 [cinnamaldehyde],log10 reduction of E. coli caused by additive alone,E. coli (ATCC 35150),< 0.4
same,log10 reduction of S. aureus caused by additive alone,S. aureus,less than 0.2

# From patent US20160015038A1, “TREATED CROP PLANTS OR PLANT FOOD PRODUCTS WITH DECREASED BACTERIAL VIABILITY AND METHODS AND APPARATUSES FOR MAKING THE SAME” (EP Technologies LLC, priority 2014, published 2016)
